Laboratory results reported in US12569470B2, “Vasodilator and use thereof” (Bioradical Research Institute Corp., priority 2019, dated 2026).

Assays:
[1] = system: superoxide produced by the neutrophils; test: Superoxide production amount of PMA-stimulated neutrophils, CLA chemiluminescence; type: cell-based, human; settings: 0-200 or 0-5,000 μmol/1, PMA 100 ng/ml, 30 minutes, control being 100, FIG. 2
Method: For examining the reactive oxygen-eliminating effect of the vasodilator of the present invention, the superoxide produced by the neutrophils when the neutrophils isolated from the peripheral blood of healthy individuals were stimulated with PMA (phorbor-12-myristate-13-acetate) was used. The superoxide production amount was measured by chemiluminescence using CLA (2-methyl-6-phenyl-3, 7-dihydroimidazo[1,2-α]pyrazine-3-one).
First, ED2AP, BisEp-C3, edaravone, BisEp-C1, or BisEp-C1 (H2) was added to a neutrophil of 4×10^5 cells per sample so as to achieve a predetermined concentration (0, 12.5, 25, 50, 100, or 200 μmol/1, or 0, 125, 250, 500, 1,250, 2,500 or 5,000 μmol/1) with […] of CLA, and then the cell suspension was seeded in flat-bottomed 96-well plates. The volume of the suspension was 200 μl/well, and phenol red-free Ca+, Mg+ HBSS was used as the solution. […] After the stimulation, a plate reader (Envision 2104 Multilabel Reader produced by Perkin Elmer Co., Ltd.) was used to measure the chemiluminescence value over time for 30 minutes with the PMA stimulation time being a reference. […] In addition, as a control, the superoxide production amount was measured in the same manner except that each compound was not added. The relative value of the superoxide production amount when each compound was added was calculated with the superoxide production amount of the control being 100.

[2] = Water solubility noted at synthesis; type: physicochemical; settings: noted for the isolated crystal
Method: 3.58 g of 3-methyl-1-phenyl-5-pyrazolone (hereinafter also referred to as “edaravone”), 2.59 g of malonaldehyde dianilide hydrochloride, and 20 ml of ethanol were added to a reactor and dissolved. To the obtained solution, 2.04 g of triethylamine and 0.4 ml of water were added and stirred for 1 hour at room temperature (about 25° C.; hereinafter, the same applies). After the stirring, the resultant was further reacted for 1 hour at 50° C. After discharging the obtained reaction solution to 100 ml of 1N hydrochloric acid, the mixture was sufficiently stirred and the precipitate was filtered. The resulting cake was washed with water. The cake was added to 200 ml of an aqueous sodium hydroxide solution having a 1% by weight concentration and completely dissolved by heating with stirring. Next, the dissolved solution was stirred for 3 hours after cooling to room temperature. Then, the liquid containing the obtained precipitate was filtered, and then the cake was washed with water. […] Note that the melting point of ED2AP was 249° C., which was water-soluble.
3 ml of dimethylformamide was added to a reactor and the exterior of the reactor was cooled with ice water. 1.75 g of phosphorus oxychloride was slowly dropped into the reactor (Reaction Solution A). In another reactor, 1.78 g of edaravone was dissolved in 5 ml of dimethylformamide (Reaction Solution B). […]

rat neuroid cells B50 = test: Cytoprotection against singlet oxygen (Rose Bengal + G-LED), Alamar Blue fluorescence; type: cell-based; settings: 0, 12.5, 25, 50, or 100 μmol/1, RB 200 nmol/1 + G-LED 5 minutes, negative control being 100, FIG. 3
Method: Edaravone, ED2AP and BisEp-C3 were examined for whether they had the function of alleviating neuronopathy. Specifically, singlet oxygen was generated by combining Rose Bengal (RB), which is a sensitizer, with green light (G-LED), and the function of alleviating the cytotoxicity of the generated singlet oxygen was examined with the cellular activity being an indicator.
First, rat neuroid cells B50 were cultured in 12-well dishes at 2×10^5 cells/well (medium: RPMI-1640 medium containing 5% FCS) overnight. After the culturing, the medium of each well was replaced with HBSS (1,000 μl/well; phenol red-free Ca+, Mg+) containing 200 nmol/1 RB and edaravone, ED2AP, or BisEp-C3 having a predetermined concentration (0, 12.5, 25, 50, or 100 μmol/1). The dish was then irradiated with G-LED for 5 minutes to generate singlet oxygen. Thereafter, the medium of each well was replaced with 1,000 μl of HBSS, and Alamar Blue was added. The dish was then allowed to react for about 2 hours in an incubator at 37° C. and 5%CO2. After the reaction, fluorescence intensity (excitation wavelength: λ- 560 nm, fluorescence wavelength: λ-595 nm) was measured with a plate reader (infinite200, Tecan Trading AG). In this experimental system, the higher the cellular activity, the more Alamar Blue is taken up and the higher the fluorescence intensity. As a control, fluorescence intensity was measured in the same manner except that sodium azide (Azide, NaN3) was added instead of the compounds so as to achieve a concentration of 4 mmol/1. As a negative control (NC), fluorescence intensity was measured in the same manner except that RB was not added. The relative value of the fluorescence intensity in the sample to which each compound was added was calculated with the fluorescence intensity of the negative control being 100.

SMILES | relative value of the superoxide production amount [1] | solubility in water [2] | relative value of the fluorescence intensity (rat neuroid cells B50)
CCN1N=C(C)/C(=C\C=C\c2c(C)nn(CC)c2O)C1=O [BisEp-C3, 2,4-dihydro-4-[3-(1-ethyl-5-hydroxy-3-methyl-1H-pyrazol-4-yl)-2-propen-1-ylidene]-2-ethyl-5-methyl-3H-pyrazol-3-one] | remarkably suppressed superoxide production amount | water-soluble | recovered in a concentration-dependent manner
CC1=NN(c2ccccc2)C(=O)/C1=C/C=C/c1c(C)nn(-c2ccccc2)c1O [ED2AP, 2,4-dihydro-4-[3-(5-hydroxy-3-methyl-1-phenyl-1H-pyrazol-4-yl)-2-propen-1-ylidene]-5-methyl-2-phenyl-3H-pyrazol-3-one] | remarkably suppressed superoxide production amount | water-soluble | recovered in a concentration-dependent manner
